Patent publication US11712434B2, “Compound having anti-cancer effect, and preparation method therefor and use thereof” (3D MEDICINES (BEIJING) CO., LTD., priority 2016, dated 2023)

Tests used:
Experiment in all cases: Cell proliferation assay (Alamar Blue)
Assay type in all cases: cell-based
SNU886 = SNU886 liver cancer cell line, 6 days culture
Outline: (§1)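 Log-phase cells seeded at line-optimised density, compound added after 4 h at 37 °C, 5% CO2, as 9-point 3.16-fold dilutions from 100 or 30 µM top concentration, duplicate wells. After 6 days, AlamarBlue fluorescence (ex 560/em 590 nm); IC50 from four-parameter nonlinear regression of % inhibition.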

DLD1 = DLD1 tumor cell line, 6 days culture
Outline: as §1

NCI-H1703 = NCI-H1703 (lung cancer cells), 6 days culture
Outline: as §1

SW620 = SW620 tumor cell line, 6 days culture
Outline: as §1

HCCLM3 = HCCLM3 tumor cell line, 6 days culture
Outline: as §1

LC-2-ad = LC-2-ad tumor cell line, 6 days culture
Outline: as §1

HLE = HLE liver cancer cell line, 6 days culture
Outline: as §1

SNU398 = SNU398 liver cancer cell line, 6 days culture
Outline: as §1

HLF = HLF liver cancer cell line, 6 days culture
Outline: as §1

Alexander cells = Alexander cells liver cancer cell line, 6 days culture
Outline: as §1

SNU449 = SNU449 liver cancer cell line, 6 days culture
Outline: as §1

HUH1 = HUH1 liver cancer cell line, 6 days culture
Outline: as §1

HUH7 = HUH7 liver cancer cell line, 6 days culture
Outline: as §1

Hep3B2.1-7 = Hep3B2.1-7 liver cancer cell line, 6 days culture
Outline: as §1

CCRF-CEM = CCRF-CEM tumor cell line, 6 days culture
Outline: as §1

SNU423 = SNU423 liver cancer cell line, 6 days culture
Outline: as §1

NCI-H526 = NCI-H526 tumor cell line, 6 days culture
Outline: as §1

T.T = T.T tumor cell line, 6 days culture
Outline: as §1

JHH5 = JHH5 liver cancer cell line, 6 days culture
Outline: as §1

KM12 = KM12 tumor cell line, 6 days culture
Outline: as §1

HuTu80 = HuTu80 tumor cell line, 6 days culture
Outline: as §1

KASUMI-1 = KASUMI-1 (leukemia cells), 6 days culture
Outline: as §1

HT55 = HT55 tumor cell line, 6 days culture
Outline: as §1

HT1080 = HT1080 tumor cell line, 6 days culture
Outline: as §1

NCI-H716 = NCI-H716 tumor cell line, 6 days culture
Outline: as §1

JHH4 = JHH4 liver cancer cell line, 6 days culture
Outline: as §1

DU145 = DU145 tumor cell line, 6 days culture
Outline: as §1

With `Cc1ccc(F)c(NC(=O)Nc2ccc(-c3cccc4[nH]nc(NC(=O)CCCCCCCCCCCNC(=O)C[C@H](N)C(=O)N[C@@H](CCC(=O)N[C@@H](CCC(=O)N[C@@H](CCC(=O)N[C@@H](CCC(=O)N[C@@H](CCC(=O)N[C@@H](CCC(=O)N[C@@H](CCC(=O)N[C@@H](CCC(=O)N[C@@H](CCC(=O)O)C(=O)O)C(=O)O)C(=O)O)C(=O)O)C(=O)O)C(=O)O)C(=O)O)C(=O)O)C(=O)O)c34)cc2)c1` [Compound 9] the IC50 (SNU886) was > 100 µM, the IC50 (DLD1) was > 100 µM and the IC50 (NCI-H1703) was 0.35 µM. For the same compound, the IC50 (SW620) was > 100 µM, the IC50 (HCCLM3) was > 100 µM and the IC50 (LC-2-ad) was > 100 µM. For the same compound, the IC50 (HLE) was > 100 µM, the IC50 (SNU398) was > 100 µM and the IC50 (HLF) was > 100 µM. For the same compound, the IC50 (Alexander cells) was > 100 µM, the IC50 (SNU449) was > 100 µM and the IC50 (HUH1) was > 100 µM. The IC50 (HUH7) was 88.5 µM, the IC50 (Hep3B2.1-7) was > 100 µM and the IC50 (CCRF-CEM) was > 100 µM. For the same compound, the IC50 (SNU423) was > 100 µM, the IC50 (NCI-H526) was > 100 µM and the IC50 (T.T) was > 100 µM. For the same compound, the IC50 (JHH5) was > 100 µM, the IC50 (KM12) was > 100 µM and the IC50 (HuTu80) was 90.4 µM. For the same compound, the IC50 (KASUMI-1) was 0.87 µM, the IC50 (HT55) was > 100 µM and the IC50 (HT1080) was > 100 µM. For the same compound, the IC50 (NCI-H716) was 77.2 µM, the IC50 (JHH4) was > 100 µM and the IC50 (DU145) was > 100 µM.

`Cc1ccc(F)c(NC(=O)Nc2ccc(-c3cccc4[nH]nc(NC(=O)CCCCCNC(=O)C[C@H](N)C(=O)O)c34)cc2)c1` [Compound 11] was tested, and the IC50 (SNU886) was > 100 µM, the IC50 (DLD1) was > 100 µM and the IC50 (NCI-H1703) was 0.83 µM. For the same compound, the IC50 (SW620) was > 100 µM, the IC50 (HCCLM3) was > 100 µM and the IC50 (LC-2-ad) was > 100 µM. The IC50 (HLE) was > 100 µM, the IC50 (SNU398) was > 100 µM and the IC50 (HLF) was 95.7 µM. For the same compound, the IC50 (Alexander cells) was > 100 µM, the IC50 (SNU449) was > 100 µM and the IC50 (HUH1) was > 100 µM. For the same compound, the IC50 (HUH7) was > 100 µM, the IC50 (Hep3B2.1-7) was > 100 µM and the IC50 (CCRF-CEM) was > 100 µM. For the same compound, the IC50 (SNU423) was > 100 µM, the IC50 (NCI-H526) was > 100 µM and the IC50 (T.T) was > 100 µM. For the same compound, the IC50 (JHH5) was > 100 µM, the IC50 (KM12) was > 100 µM and the IC50 (HuTu80) was 63.1 µM. The IC50 (KASUMI-1) was 1.09 µM, the IC50 (HT55) was > 100 µM and the IC50 (HT1080) was > 100 µM. For the same compound, the IC50 (NCI-H716) was 67.4 µM, the IC50 (JHH4) was > 100 µM and the IC50 (DU145) was > 100 µM.

With `Cc1ccc(F)c(NC(=O)Nc2ccc(-c3cccc4[nH]nc(NC(=O)C[C@H](N)C(=O)N[C@@H](CCC(=O)O)C(=O)O)c34)cc2)c1` [Compound 1] the IC50 (SNU886; SNU-886, 144 h) was 7.24 µM, the IC50 (DLD1; Homo sapiens, DLD-1, 144 h) was 18.5 µM and the IC50 (NCI-H1703; Homo sapiens, 144 h) was 0.03 µM. For the same compound, the IC50 (SW620; Homo sapiens, SW-620, 144 h) was 3.96 µM, the IC50 (HCCLM3; Homo sapiens, 144 h) was 8.24 µM and the IC50 (LC-2-ad; Homo sapiens, 144 h) was 3.52 µM. It also gave an IC50 (HLE; Homo sapiens, 144 h) of 2.84 µM, an IC50 (SNU398; Homo sapiens, SNU-398, 144 h) of 1.75 µM and an IC50 (HLF; 144 h) of 5.24 µM. It also gave an IC50 (Alexander cells; 144 h) of 4.01 µM, an IC50 (SNU449; Homo sapiens, SNU-449, 144 h) of 16.5 µM and an IC50 (HUH1; Homo sapiens, HuH-1, 144 h) of 4.67 µM. For the same compound, the IC50 (HUH7; Homo sapiens, Huh-7, 144 h) was 2.89 µM, the IC50 (Hep3B2.1-7; 144 h) was 3.29 µM and the IC50 (CCRF-CEM; Homo sapiens, 144 h) was 6.14 µM. It also gave an IC50 (SNU423; Homo sapiens, SNU-423, 144 h) of 25.4 µM, an IC50 (NCI-H526; Homo sapiens, 144 h) of 7.45 µM and an IC50 (T.T; Homo sapiens, TT, 144 h) of 9.24 µM. It also gave an IC50 (JHH5; 144 h) of 16.6 µM, an IC50 (KM12; Homo sapiens, 144 h) of 3.71 µM and an IC50 (HuTu80; Homo sapiens, 144 h) of 1.98 µM. It also gave an IC50 (KASUMI-1; Homo sapiens, 144 h) of 0.02 µM, an IC50 (HT55; Homo sapiens, 144 h) of 24.7 µM and an IC50 (HT1080; Homo sapiens, HT-1080, 144 h) of 10.4 µM. For the same compound, the IC50 (NCI-H716; Homo sapiens, 144 h) was 5.49 µM, the IC50 (JHH4; JHH-4, 144 h) was 25 µM and the IC50 (DU145; Homo sapiens, DU-145, 144 h) was 4.25 µM.

In the case of `Cc1ccc(F)c(NC(=O)Nc2ccc(-c3cccc4[nH]nc(NC(=O)C[C@H](N)C(=O)O)c34)cc2)c1` [Compound 10], the IC50 (SNU886; SNU-886, 144 h) is reported as 6.19 µM, the IC50 (DLD1; Homo sapiens, DLD-1, 144 h) is reported as 10.5 µM and the IC50 (NCI-H1703; Homo sapiens, 144 h) is reported as 0.02 µM. It also gave an IC50 (SW620; Homo sapiens, SW-620, 144 h) of 3.46 µM, an IC50 (HCCLM3; Homo sapiens, 144 h) of 7.76 µM and an IC50 (LC-2-ad; Homo sapiens, 144 h) of 3.33 µM. For the same compound, the IC50 (HLE; Homo sapiens, 144 h) was 2.16 µM, the IC50 (SNU398; Homo sapiens, SNU-398, 144 h) was 1.64 µM and the IC50 (HLF; 144 h) was 4.85 µM. For the same compound, the IC50 (Alexander cells; 144 h) was 3.79 µM, the IC50 (SNU449; Homo sapiens, SNU-449, 144 h) was 13.9 µM and the IC50 (HUH1; Homo sapiens, HuH-1, 144 h) was 3.88 µM. It also gave an IC50 (HUH7; Homo sapiens, Huh-7, 144 h) of 2.24 µM, an IC50 (Hep3B2.1-7; 144 h) of 2.43 µM and an IC50 (CCRF-CEM; Homo sapiens, 144 h) of 5.46 µM. The IC50 (SNU423; Homo sapiens, SNU-423, 144 h) was 15.3 µM, the IC50 (NCI-H526; Homo sapiens, 144 h) was 6.93 µM and the IC50 (T.T; Homo sapiens, TT, 144 h) was 7.38 µM. For the same compound, the IC50 (JHH5; 144 h) was 13.4 µM, the IC50 (KM12; Homo sapiens, 144 h) was 2.43 µM and the IC50 (HuTu80; Homo sapiens, 144 h) was 1.84 µM. The IC50 (KASUMI-1; Homo sapiens, 144 h) was 0.01 µM, the IC50 (HT55; Homo sapiens, 144 h) was 18.5 µM and the IC50 (HT1080; Homo sapiens, HT-1080, 144 h) was 7.83 µM. It also gave an IC50 (NCI-H716; Homo sapiens, 144 h) of 5.09 µM, an IC50 (JHH4; JHH-4, 144 h) of 14.4 µM and an IC50 (DU145; Homo sapiens, DU-145, 144 h) of 3.62 µM.

In the case of `Cc1ccc(F)c(NC(=O)Nc2ccc(-c3cccc4[nH]nc(NC(=O)CCCCCNC(=O)C[C@H](N)C(=O)N[C@@H](CCC(=O)N[C@@H](CCC(=O)N[C@@H](CCC(=O)N[C@@H](CCC(=O)O)C(=O)O)C(=O)O)C(=O)O)C(=O)O)c34)cc2)c1` [Compound 5], the IC50 (SNU886; SNU-886, 144 h) is reported as > 100 µM, the IC50 (DLD1; Homo sapiens, DLD-1, 144 h) is reported as > 100 µM and the IC50 (NCI-H1703; Homo sapiens, 144 h) is reported as 2.81 µM. The IC50 (SW620; Homo sapiens, SW-620, 144 h) was > 100 µM, the IC50 (HCCLM3; Homo sapiens, 144 h) was > 100 µM and the IC50 (LC-2-ad; Homo sapiens, 144 h) was > 100 µM. For the same compound, the IC50 (HLE; Homo sapiens, 144 h) was > 100 µM, the IC50 (SNU398; Homo sapiens, SNU-398, 144 h) was > 100 µM and the IC50 (HLF; 144 h) was > 100 µM. The IC50 (Alexander cells; 144 h) was > 100 µM, the IC50 (SNU449; Homo sapiens, SNU-449, 144 h) was > 100 µM and the IC50 (HUH1; Homo sapiens, HuH-1, 144 h) was > 100 µM. The IC50 (HUH7; Homo sapiens, Huh-7, 144 h) was > 100 µM, the IC50 (Hep3B2.1-7; 144 h) was > 100 µM and the IC50 (CCRF-CEM; Homo sapiens, 144 h) was > 100 µM. For the same compound, the IC50 (SNU423; Homo sapiens, SNU-423, 144 h) was > 100 µM, the IC50 (NCI-H526; Homo sapiens, 144 h) was > 100 µM and the IC50 (T.T; Homo sapiens, TT, 144 h) was > 100 µM. The IC50 (JHH5; 144 h) was > 100 µM, the IC50 (KM12; Homo sapiens, 144 h) was > 100 µM and the IC50 (HuTu80; Homo sapiens, 144 h) was > 100 µM. For the same compound, the IC50 (KASUMI-1; Homo sapiens, 144 h) was 4.26 µM, the IC50 (HT55; Homo sapiens, 144 h) was > 100 µM and the IC50 (HT1080; Homo sapiens, HT-1080, 144 h) was > 100 µM. For the same compound, the IC50 (NCI-H716; Homo sapiens, 144 h) was > 100 µM, the IC50 (JHH4; JHH-4, 144 h) was > 100 µM and the IC50 (DU145; Homo sapiens, DU-145, 144 h) was > 100 µM.
